Reference: PubChem BioAssay AID504927 (NMMLSC, 2011)
“And” between values parts separate entries of the source, which are not always exact repeats. Equal entries are not always repeated. The source made the active and inactive calls.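 Rule for the calls: active = EC50 below 10 microM from an accepted curve fit, fit percent over 10, EC50 error under a fifth; inactive = the rest.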

Test system: not listed separately
Experiment: reduction of age-related superoxide, S. cerevisiae – additional hits, confirmation, dose response (AID 504927)
Conditions: S. cerevisiae aged culture, superoxide DHE fluorescence, 7 d; at 33.1 µM (top of the series)

Q: For `Cc1cc(C)c2[nH]c3nc(SCC(=O)O)nnc3c2c1`, which percent response (superoxide), lower = inhibition is on record?
A: 111% (inactive)

Q: For `COc1ccc2nc3cccc(OC)c3nc2c1`, which percent response (superoxide), lower = inhibition is on record?
A: 79.2% (inactive)

Q: For `CC(=O)O[C@H]1CCC2C3CC[C@H]4[C@@H](O)[C@H](O)CC[C@]4(C)C3CC[C@@]21C` (stereo partly drawn), which percent response (superoxide), lower = inhibition is on record?
A: 93.3% (inactive)

Q: Which percent response (superoxide), lower = inhibition does the source give for `COc1ccc2cc(C3CC(c4ccco4)=NN3S(=O)(=O)c3ccccc3)c(Cl)nc2c1` (stereo not drawn) here?
A: 110% (inactive)

Q: With `CNC(=O)c1cccc2nc3ccccc3nc12` as the compound, how does the percent response (superoxide), lower = inhibition read?
A: 52% (inactive)

Q: Which percent response (superoxide), lower = inhibition does the source give for `CC(=O)[C@@]1(O)CCC2C3CC[C@H]4C[C@@H](O)CC[C@]4(C)C3CC[C@@]21C` (stereo partly drawn) here?
A: 107% (inactive)

Q: With `COc1ccc2c(c1)c1nnc(SC)nc1n2C` as the compound, how does the percent response (superoxide), lower = inhibition read?
A: 54.2% (inactive)

Q: Which percent response (superoxide), lower = inhibition does the source give for `Cc1cc2nc3ccc(N(C)C)cc3nc2cc1N` here?
A: 82.4% (inactive)

Q: For `C=CCOn1c(=O)c(-c2cccs2)[n+]([O-])c2ccccc21`, which percent response (superoxide), lower = inhibition is on record?
A: 83.4% (inactive)

Q: Which percent response (superoxide), lower = inhibition does the source give for `Cn1c(O)c(C(=Nc2ccc(F)cc2)c2ccccc2Cl)c(=O)n(C)c1=O` here?
A: 113% (inactive)

Q: With `CC(C)(C)Nc1ncnc2c1cnn2-c1ccccc1` as the compound, how does the percent response (superoxide), lower = inhibition read?
A: 110% (inactive)

Q: For `NC(=O)CSc1nnc(-c2ccc([N+](=O)[O-])cc2)o1`, which percent response (superoxide), lower = inhibition is on record?
A: 99.1% (inactive)

Q: Which percent response (superoxide), lower = inhibition does the source give for `CCC(=Nc1ccccc1O)C1=C(O)CC(c2ccccc2)CC1=O` (stereo not drawn) here?
A: 87.9% (inactive)

Q: For `FC(F)(F)c1nc2cc3nc4ccccc4[nH]c3cc2n1`, which percent response (superoxide), lower = inhibition is on record?
A: 72.2% (inactive)

Q: With `CN(C)CCNc1ncnc2c1cnn2-c1ccc(Cl)cc1` as the compound, how does the percent response (superoxide), lower = inhibition read?
A: 97.4% (inactive)

Q: For `COc1cccc2nc3cc(C)c(C)cc3nc12`, which percent response (superoxide), lower = inhibition is on record?
A: 78.3% (inactive)

Q: Which percent response (superoxide), lower = inhibition does the source give for `CCCCCNC(=O)C(=O)C1C(=O)Nc2ccccc21` (stereo not drawn) here?
A: 86.1% (inactive)

Q: Which percent response (superoxide), lower = inhibition does the source give for `O=C(CN1CCN(c2ccccn2)CC1)Nc1ccccc1F` here?
A: 108% (inactive)

Q: For `CCc1nc(NC(C)(C)C)c2cnn(-c3ccccc3)c2n1`, which percent response (superoxide), lower = inhibition is on record?
A: 119% (inactive)

Q: Which percent response (superoxide), lower = inhibition does the source give for `C=C1C(O)[C@@H]2O[C@]3(CC[C@H](/C=C/C(C)[C@@H]4CC(C)=CC5(O[C@H](C[C@@](C)(O)C(=O)O)CCC5O)O4)O3)CC[C@H]2O[C@@H]1C(O)CC(C)[C@H]1OC2(CCCCO2)CCC1C` (stereo partly drawn) here?
A: 84% (inactive)

Q: Which percent response (superoxide), lower = inhibition does the source give for `CC(C)CSc1nnc2c3ccccc3n(C)c2n1` here?
A: 105% (inactive)

Q: With `C[C@]12CCC3C(CC[C@H]4C[C@@H](O)CC[C@]34C)[C@H]1CC[C@H]2O` (stereo partly drawn) as the compound, how does the percent response (superoxide), lower = inhibition read?
A: 113% (inactive)

Q: For `Cc1cc(C)cc(NC(=O)CN2CCN(c3ccccn3)CC2)c1`, which percent response (superoxide), lower = inhibition is on record?
A: 95.7% (inactive)

Q: With `O=C(/C=C/c1ccccc1)NC(=S)NNC(=O)Cc1cccs1` as the compound, how does the percent response (superoxide), lower = inhibition read?
A: 78.9% (inactive)

Q: With `O=C(Nc1ccc2nc3ccccc3nc2c1)c1ccc(Br)cc1` as the compound, how does the percent response (superoxide), lower = inhibition read?
A: 104% (inactive)

Q: Which percent response (superoxide), lower = inhibition does the source give for `CCn1c2ccccc2c2n[nH]c(=S)nc21` here?
A: 94.7% (inactive)

Q: For `c1ccc2nc3ccccc3nc2c1`, which percent response (superoxide), lower = inhibition is on record?
A: 88.6% (inactive)

Q: Which percent response (superoxide), lower = inhibition does the source give for `N#CCc1nn(-c2ccccc2)c2ncnc(N)c12` here?
A: 95.5% (inactive)

Q: For `Oc1cccc2nc3ccccc3nc12`, which percent response (superoxide), lower = inhibition is on record?
A: 129% (inactive)

Q: With `CC(C)OC(=O)CSc1nnc(-c2ccc(Cl)cc2Cl)o1` as the compound, how does the percent response (superoxide), lower = inhibition read?
A: 128% (inactive)

Q: With `COc1ccc2nc3ccccc3[n+]([O-])c2c1` as the compound, how does the percent response (superoxide), lower = inhibition read?
A: 107% (inactive)

Q: For `COc1ccc2c3c(cccc13)N(C)N=C2C`, which percent response (superoxide), lower = inhibition is on record?
A: 78.1% (inactive)

Q: Which percent response (superoxide), lower = inhibition does the source give for `N#CC(c1nc2ccccc2nc1N1CCCC1)S(=O)(=O)c1ccccc1` (stereo not drawn) here?
A: 128% (inactive)

Q: With `CCN(CC)C(=O)CSc1nnc(-c2cccc(OC)c2)o1` as the compound, how does the percent response (superoxide), lower = inhibition read?
A: 108% (inactive)

Q: With `C[C@]12CCC3C(CC[C@H]4C[C@@H](O)CC[C@]34C)C1CC[C@@H]2OC(=O)[C@H](N)CCCCN` (stereo partly drawn) as the compound, how does the percent response (superoxide), lower = inhibition read?
A: 96.2% (inactive)

Q: With `Cc1ccc(-c2nn(C(C)(C)C)c3ncnc(N)c23)cc1` as the compound, how does the percent response (superoxide), lower = inhibition read?
A: 44.3% (inactive)

Q: For `C=CCSc1nnc(-c2ccc([N+](=O)[O-])cc2)o1`, which percent response (superoxide), lower = inhibition is on record?
A: 63.5% (inactive)

Q: With `O=C(/C=C/c1cccs1)NC(=S)NNC(=O)Cc1cccs1` as the compound, how does the percent response (superoxide), lower = inhibition read?
A: 132% (inactive)

Q: Which percent response (superoxide), lower = inhibition does the source give for `C#C[C@]1(O)[C@H](O)CC2C3CC[C@H]4C[C@@H](O)CC[C@]4(C)C3CC[C@@]21C` (stereo partly drawn) here?
A: 117% (inactive)

Q: With `Cc1ccccc1NC(=O)c1cccc2nc3ccccc3nc12` as the compound, how does the percent response (superoxide), lower = inhibition read?
A: 104% (inactive)

Q: For `O=c1[nH]c(O)c(C=Nc2ccc(F)c(Cl)c2)c(=O)[nH]1`, which percent response (superoxide), lower = inhibition is on record?
A: 97.1% (inactive)

Test system: S. cerevisiae aged culture, superoxide DHE fluorescence, 7 d
Experiment: as above
Conditions: not given

Q: For `CCN(CC)C(=O)c1cccc2nc3ccccc3nc12`, which EC50 is on record?
A: 1520 nM

Q: For `COc1ccc2nc3ccccc3nc2c1NC(=O)c1ccccc1Cl`, which EC50 is on record?
A: 60 nM

Q: For `COC(=O)c1cccc2nc3c(C(C)O)cccc3nc12` (stereo not drawn), which EC50 is on record?
A: 910 nM

Q: For `CNc1ccc2nc3ccccc3[n+](C)c2c1`, which EC50 is on record?
A: 2110 nM

Q: For `C#CCSc1nnc(-c2ccc([N+](=O)[O-])cc2)o1`, which EC50 is on record?
A: 5160 nM

Q: With `COc1ccc2nc3ccccc3nc2c1N` as the compound, how does the EC50 read?
A: 1130 nM

Q: For `C[C@]12CCC3C(CC[C@H]4C[C@H](O)CC[C@]34C)C1CCC2=O` (stereo partly drawn), which EC50 is on record?
A: 30 nM

Q: Which EC50 does the source give for `COc1ccc2nc3ccccc3nc2c1` here?
A: 370 nM and 850 nM

Q: With `CC(C)(C)n1nc(-c2ccc(F)cc2)c2c(N)ncnc21` as the compound, how does the EC50 read?
A: 2440 nM

Q: For `CCN(CC)c1ccc2nc3ccc(N)cc3[n+](-c3ccccc3)c2c1`, which EC50 is on record?
A: 2310 nM

Q: With `O=C(c1cccc2nc3ccccc3nc12)N1CCOCC1` as the compound, how does the EC50 read?
A: 1750 nM

Q: With `Cc1cccc2nc3ccccc3nc12` as the compound, how does the EC50 read?
A: 2720 nM

Q: With `C[n+]1c2ccccc2nc2ccc(NCCO)cc21` as the compound, how does the EC50 read?
A: 4520 nM

Q: For `CC(C)OC(=O)c1ccc2nc3ccccc3nc2c1`, which EC50 is on record?
A: 12600 nM (inactive)

Q: Which EC50 does the source give for `O=C(OCc1c(F)cccc1Cl)c1cnc2ccccc2n1` here?
A: 5980 nM

Q: Which EC50 does the source give for `Nc1cc2nc3ccccc3nc2cc1N` here?
A: 3500 nM

Q: Which EC50 does the source give for `C[C@]12CCC3C(CC[C@H]4C[C@H](O)CC[C@]34C)C1C[C@@H](CCCCl)[C@@H]2O` (stereo partly drawn) here?
A: 530 nM

Q: With `O=C(O)c1cnc2ccccc2n1` as the compound, how does the EC50 read?
A: 13400 nM (inactive)

Q: For `c1ccc2[nH]c3cc4ncnc4cc3nc2c1`, which EC50 is on record?
A: 130 nM

Q: Which EC50 does the source give for `CC(=O)Nc1ccc2nc3ccccc3nc2c1` here?
A: 170 nM

Q: For `CSc1nnc(-c2ccc([N+](=O)[O-])cc2)o1`, which EC50 is on record?
A: 13100 nM (inactive)

Q: With `O=C1c2c(O)ccc(O)c2C(=O)c2c(NCCNCCO)ccc(NCCNCCO)c21` as the compound, how does the EC50 read?
A: 6580 nM

Q: Which EC50 does the source give for `C/C(=N\Nc1ncnc2sc(C)c(C)c12)c1ccccn1` here?
A: 10400 nM (inactive)

Q: With `CSc1nnc2c3cc(F)ccc3n(C)c2n1` as the compound, how does the EC50 read?
A: 5860 nM

Q: For `O=C(Nc1ccc2nc3ccccc3nc2c1)c1ccccc1`, which EC50 is on record?
A: 80 nM

Q: With `O=C(Nc1cccc(Cl)c1)Nc1ccc2nccnc2c1` as the compound, how does the EC50 read?
A: 510 nM

Q: With `OCC[n+]1c2ccccc2nc2ccc(N3CCOCC3)cc21` as the compound, how does the EC50 read?
A: 2610 nM

Q: For `Cn1c(=O)[nH]c2nncnc2c1=O`, which EC50 is on record?
A: 3400 nM

Q: With `C[C@@]12C(=O)OC(=O)[C@]1(C)C1CCC2O1` as the compound, how does the EC50 read?
A: 180 nM

Q: With `CC(C)(C)n1nc(-c2ccc(Cl)cc2)c2c(N)ncnc21` as the compound, how does the EC50 read?
A: 4230 nM

Q: For `[O-][n+]1c2ccccc2[n+]([O-])c2cc(O)ccc21`, which EC50 is on record?
A: 1110 nM

Q: Which EC50 does the source give for `CCN(CC)C(=O)c1ccc2nc3ccccc3nc2c1` here?
A: 790 nM
